Assay results as given in ChEMBL document CHEMBL3991601, “The target landscape of clinical kinase drugs” (Science, 2017).
The source made the active and inactive calls. Rule as the data show it, for most assays here: actives have a measured Kd and inactives only a lower limit.

Legend:
dCTP pyrophosphatase 1 = target: T1, dCTP pyrophosphatase 1 (Homo sapiens, UniProt Q9H773)
T1 sequence (Q9H773 whole entry): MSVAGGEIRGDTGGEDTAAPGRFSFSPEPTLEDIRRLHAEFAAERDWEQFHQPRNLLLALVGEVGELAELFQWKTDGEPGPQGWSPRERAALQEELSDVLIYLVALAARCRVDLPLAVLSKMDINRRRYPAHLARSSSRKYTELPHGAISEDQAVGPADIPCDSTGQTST

[1] = target: T2, Mitogen-activated protein kinase kinase kinase kinase 3 (Homo sapiens, UniProt Q8IVH8)
T2 sequence (Q8IVH8 whole entry): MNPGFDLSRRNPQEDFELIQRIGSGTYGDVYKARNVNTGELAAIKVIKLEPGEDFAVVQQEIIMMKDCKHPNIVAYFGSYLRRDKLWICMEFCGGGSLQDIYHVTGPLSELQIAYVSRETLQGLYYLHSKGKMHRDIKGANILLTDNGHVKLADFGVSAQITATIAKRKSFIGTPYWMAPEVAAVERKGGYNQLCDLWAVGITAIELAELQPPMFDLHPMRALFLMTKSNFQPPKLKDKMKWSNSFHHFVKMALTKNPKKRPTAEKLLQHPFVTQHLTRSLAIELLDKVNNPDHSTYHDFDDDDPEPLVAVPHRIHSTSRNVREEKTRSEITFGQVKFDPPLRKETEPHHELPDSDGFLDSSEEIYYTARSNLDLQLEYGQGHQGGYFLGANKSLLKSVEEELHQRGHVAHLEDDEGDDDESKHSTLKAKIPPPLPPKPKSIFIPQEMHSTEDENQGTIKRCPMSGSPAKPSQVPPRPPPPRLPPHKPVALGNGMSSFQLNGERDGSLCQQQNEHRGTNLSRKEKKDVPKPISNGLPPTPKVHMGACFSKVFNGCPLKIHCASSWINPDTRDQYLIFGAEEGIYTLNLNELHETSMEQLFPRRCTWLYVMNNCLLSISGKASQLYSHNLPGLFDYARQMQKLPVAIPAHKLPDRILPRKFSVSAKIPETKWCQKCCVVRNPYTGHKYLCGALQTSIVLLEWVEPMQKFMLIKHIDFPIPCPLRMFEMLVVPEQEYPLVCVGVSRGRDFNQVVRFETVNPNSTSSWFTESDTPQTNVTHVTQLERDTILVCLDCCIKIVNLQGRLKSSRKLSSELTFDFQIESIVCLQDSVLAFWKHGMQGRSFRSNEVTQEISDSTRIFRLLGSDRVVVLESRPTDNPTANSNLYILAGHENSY

[2] = target: Mitogen-activated protein kinase 3 (Homo sapiens, UniProt P27361)
Sequence of Mitogen-activated protein kinase 3 (P27361 whole entry): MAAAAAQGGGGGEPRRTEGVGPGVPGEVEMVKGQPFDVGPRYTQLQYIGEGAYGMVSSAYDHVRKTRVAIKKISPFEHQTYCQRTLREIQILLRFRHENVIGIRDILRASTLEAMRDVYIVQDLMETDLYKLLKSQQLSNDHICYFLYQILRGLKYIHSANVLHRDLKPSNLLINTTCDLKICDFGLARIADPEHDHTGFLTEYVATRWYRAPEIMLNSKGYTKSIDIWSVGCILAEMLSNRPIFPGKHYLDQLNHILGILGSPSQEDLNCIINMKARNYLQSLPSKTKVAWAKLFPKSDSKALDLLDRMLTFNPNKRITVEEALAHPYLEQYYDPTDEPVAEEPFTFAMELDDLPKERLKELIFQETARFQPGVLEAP

[3] = target: 5'-AMP-activated protein kinase catalytic subunit alpha-1 (Homo sapiens, UniProt Q13131)
Sequence of 5'-AMP-activated protein kinase catalytic subunit alpha-1 (Q13131 whole entry): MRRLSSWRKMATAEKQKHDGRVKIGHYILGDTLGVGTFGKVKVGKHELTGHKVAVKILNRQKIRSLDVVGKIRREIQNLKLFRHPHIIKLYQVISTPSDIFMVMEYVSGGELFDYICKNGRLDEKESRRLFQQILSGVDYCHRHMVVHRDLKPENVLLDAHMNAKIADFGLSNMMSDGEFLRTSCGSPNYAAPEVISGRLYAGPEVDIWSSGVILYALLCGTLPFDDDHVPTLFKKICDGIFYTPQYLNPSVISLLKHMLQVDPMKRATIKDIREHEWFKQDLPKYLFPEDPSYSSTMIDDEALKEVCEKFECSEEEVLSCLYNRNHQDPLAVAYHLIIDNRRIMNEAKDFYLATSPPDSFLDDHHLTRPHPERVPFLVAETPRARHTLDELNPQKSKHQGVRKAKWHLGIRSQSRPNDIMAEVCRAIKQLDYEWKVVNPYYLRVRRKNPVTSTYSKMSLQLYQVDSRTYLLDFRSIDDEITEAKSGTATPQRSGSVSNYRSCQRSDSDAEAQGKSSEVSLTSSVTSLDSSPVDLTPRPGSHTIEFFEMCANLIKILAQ

[4] = target: cAMP-dependent protein kinase catalytic subunit beta (Homo sapiens, UniProt P22694)
[5] = target: T3, Ras-related protein Rab-10 (Homo sapiens, UniProt P61026)
T3 sequence (P61026 whole entry): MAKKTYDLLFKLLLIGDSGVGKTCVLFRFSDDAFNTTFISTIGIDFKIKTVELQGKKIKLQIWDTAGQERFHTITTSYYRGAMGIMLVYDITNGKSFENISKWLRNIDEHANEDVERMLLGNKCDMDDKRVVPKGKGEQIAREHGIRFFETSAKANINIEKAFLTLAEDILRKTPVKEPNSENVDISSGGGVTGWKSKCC

[6] = target: T4, Serine/threonine-protein kinase ULK1 (Homo sapiens, UniProt O75385)
T4 sequence (O75385 whole entry): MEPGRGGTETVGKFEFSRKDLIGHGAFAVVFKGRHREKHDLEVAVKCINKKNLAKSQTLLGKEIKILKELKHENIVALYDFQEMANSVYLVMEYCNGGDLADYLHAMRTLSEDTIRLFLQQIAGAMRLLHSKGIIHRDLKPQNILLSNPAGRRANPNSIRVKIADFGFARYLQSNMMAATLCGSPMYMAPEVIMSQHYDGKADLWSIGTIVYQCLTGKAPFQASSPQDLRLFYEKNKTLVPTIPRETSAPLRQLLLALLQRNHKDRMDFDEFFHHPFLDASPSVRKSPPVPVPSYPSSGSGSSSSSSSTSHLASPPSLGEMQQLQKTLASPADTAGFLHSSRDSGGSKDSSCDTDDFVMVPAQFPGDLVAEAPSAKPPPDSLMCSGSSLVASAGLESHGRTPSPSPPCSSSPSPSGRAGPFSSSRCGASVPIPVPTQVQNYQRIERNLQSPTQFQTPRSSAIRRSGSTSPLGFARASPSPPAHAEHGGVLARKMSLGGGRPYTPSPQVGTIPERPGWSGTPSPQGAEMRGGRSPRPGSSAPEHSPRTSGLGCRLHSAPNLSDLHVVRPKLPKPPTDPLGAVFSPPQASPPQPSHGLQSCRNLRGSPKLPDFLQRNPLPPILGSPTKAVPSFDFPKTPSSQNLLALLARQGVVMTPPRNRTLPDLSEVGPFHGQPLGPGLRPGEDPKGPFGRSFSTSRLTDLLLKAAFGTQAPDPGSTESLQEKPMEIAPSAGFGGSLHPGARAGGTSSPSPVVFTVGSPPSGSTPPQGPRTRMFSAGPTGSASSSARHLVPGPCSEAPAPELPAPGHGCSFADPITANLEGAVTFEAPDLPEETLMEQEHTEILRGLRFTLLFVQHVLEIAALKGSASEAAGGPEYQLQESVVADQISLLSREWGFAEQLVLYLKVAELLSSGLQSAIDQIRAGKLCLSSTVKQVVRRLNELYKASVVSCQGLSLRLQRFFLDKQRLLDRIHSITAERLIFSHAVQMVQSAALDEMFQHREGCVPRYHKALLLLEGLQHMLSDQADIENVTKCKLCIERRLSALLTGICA

[7] = target: T5, Serine/threonine-protein kinase ULK3 (Homo sapiens, UniProt Q6PHR2)
T5 sequence (Q6PHR2 whole entry): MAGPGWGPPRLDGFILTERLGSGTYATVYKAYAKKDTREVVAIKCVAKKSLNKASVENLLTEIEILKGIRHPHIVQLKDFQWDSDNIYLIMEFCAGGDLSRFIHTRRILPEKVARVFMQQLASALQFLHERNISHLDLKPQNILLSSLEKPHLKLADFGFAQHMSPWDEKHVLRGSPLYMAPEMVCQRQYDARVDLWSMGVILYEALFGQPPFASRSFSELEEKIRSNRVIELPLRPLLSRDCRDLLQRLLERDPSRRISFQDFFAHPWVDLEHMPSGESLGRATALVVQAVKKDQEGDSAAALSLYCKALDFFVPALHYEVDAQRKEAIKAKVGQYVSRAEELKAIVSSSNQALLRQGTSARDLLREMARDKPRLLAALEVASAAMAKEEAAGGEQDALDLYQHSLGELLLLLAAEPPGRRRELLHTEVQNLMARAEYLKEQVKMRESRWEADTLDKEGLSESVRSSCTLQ
Also: in the data inactive means no Kd found up to 30 µM.

Kd (dCTP pyrophosphatase 1)	Kd [1]	Kd [2]	Kd [3]	Kd [4]	Kd [5]	Kd [6]	Kd [7]	Structure (SMILES)
> 30 µM (inactive)	0.526 µM (active)	> 30 µM (inactive)	0.38 µM (active)	> 30 µM (inactive)	> 30 µM (inactive)	> 30 µM (inactive)	0.492 µM (active)	CC(C)c1cc(CNc2nc(Nc3cc(C4CC4)[nH]n3)cc(N3CCN(C)CC3)n2)on1 [XL-228]
> 30 µM (inactive)	> 30 µM (inactive)	> 30 µM (inactive)	> 30 µM (inactive)	> 30 µM (inactive)	> 30 µM (inactive)	> 30 µM (inactive)	> 30 µM (inactive)	C[C@@H](N)c1ccc(C(=O)Nc2ccnc3[nH]ccc23)cc1 [Y-39983]
> 30 µM (inactive)	0.85 µM (active)	> 30 µM (inactive)	> 30 µM (inactive)	> 30 µM (inactive)	> 30 µM (inactive)	> 30 µM (inactive)	> 30 µM (inactive)	CN1C/C=C/CCOc2cccc(c2)-c2ccnc(n2)Nc2cccc(c2)C1 [ZOTIRACICLIB]
